Like-named read-outs stand apart in the source and are kept apart here.

The source of these data is patent US20050272677A1, “Delivery of a substance to a pre-determined site” (priority 2002, published 2005).

For assay [1], the system named is MscL. Particulars: spheroplasts. The protocol: Patch-clamp experiments on spheroplast allow quantitation of the tension sensitivity because of the presence of an internal control, which is the mechanosensitive channel of small conductance (MscS). […] For most clinical applications, it is important that the channel remains closed at pH values of 7.4.
Giant spheroplasts were prepared as described before and electrophysiological measurements were done by using symmetrical buffers, both in the bath and in the pipette. The gating threshold of MscL (or its mutant) is given as the ratio of the suction required to open MscL to that at which MscS opens.
Giant spheroplasts were prepared as described in P. Blount, et al., 1999, Methods Enzymol. 294:458-482.

Assay [2] deals with MscL. Particulars: pH 6; Yoshimura et al. 1999; cited from earlier work.
Assay [3] has as its system pB104 strain (MscL null E. coli). The assay is described as follows: Growth assay of MscL mutants on agar plates with or without IPTG. It counts as cell-based. The arrangement: key: ++++: growth equal to cells expressing wild-type MscL; growth is indicated by ++++ to −; growth is indicated by ++++ to −; growth is indicated by ++++ to −; −: an absence of growth. Particulars: pB104 with Lac-inducible plasmid. The protocol: The constructs of the MscL-6His mutants were constructed using standard molecular biology techniques. The mutants were tested in the pB104 strain (MscL null E. coli) by a growth assay on agar plates with or without IPTG (K. Yoshimura et al., 1999, Biophys. J. 77:1960-1972).
The first phenotype (++) grows like the single G22S mutant.

The target in assay [4] is T1, MscL (Escherichia coli, UniProt P0A742).
T1 sequence (P0A742 whole entry, looked up): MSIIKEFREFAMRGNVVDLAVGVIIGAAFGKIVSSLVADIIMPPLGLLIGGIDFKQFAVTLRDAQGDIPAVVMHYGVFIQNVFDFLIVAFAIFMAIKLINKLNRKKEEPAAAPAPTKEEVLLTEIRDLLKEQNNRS
In kind it is biochemical, E. coli. The protocol:
Results Overexpression and Purification of the MscL Channel Protein
Samples were prepared and calcein efflux was monitored as described elsewhere in Example 1.
300 μl of detergent-treated liposomes were gently mixed with 240 μl of 0.25 mg/ml purified MscL-mutant G22C in elution buffer containing 0.2% Triton X-100. The mixture was incubated at 60° C. for 45 minutes, followed by the addition of an equal volume (540 μl) of calcein-loading buffer, containing 200 mM calcein, 25 mM Tris, 1 mM EDTA, pH 8.0. After addition of 20 mg of Triton X-100-absorbing Bio-Beads SM-2, the mixture was gently agitated for one hour at room temperature. Subsequently, 80 mg Bio-Beads were added and incubated at 4° C. overnight under mild agitation. Samples were prepared for calcein efflux assay as described elsewhere.

Assay [5] concerns pB104 strain (MscL null E. coli). The assay is described as follows: MTSET shock assay on agar plates with IPTG. It counts as cell-based. The arrangement: Growth −MTSET-shock: key to the marks not given beside the values. The protocol: The constructs of the G20C^Ll, V21C^Ll and G22C^Ec MscL-6His mutants were constructed using standard molecular biology techniques. The mutants were tested in pB104 strain (MscL null E. coli) by a MTSET shock assay on agar plates with IPTG (A. F. Batiza, et al., 2002, PNAS, 99:5643-5648).

Consider “WT: wild-type E. coli MscL (6His construct)”, for which the “Gating threshold (ratio of activation pressure to that of MscS)” value in the assay with MscL [1] (pH 5.85) was 1.53 ± 0.185; in the assay with MscL [1] (pH 7.5) it was 1.56 ± 0.139; in the assay on MscL [2] it was 1.64 ± 0.08. The “Growth on agar plates +IPTG” value in assay [3] (with IPTG) is recorded as “++++”. Further, the “Growth on agar plates −IPTG” value in assay [3] (without IPTG) is reported as “++++”. For the same substance, in the assay with MscL [4], the “calcein efflux upon osmotic downshock” value was “greater efflux of calcein than liposomes without MscL”. In addition, the “Growth after +MTSET-shock” value in assay [5] is given as “++++”. The “Growth −MTSET-shock” value in assay [5] was “++++”.
